What was measured:
129S6/SvEv mice [1] = test: 3-shock contextual fear conditioning (CFC); format: in vivo; conditions: for freezing during CFC training / freezing at re-exposure to the training context (learned fear) vs saline: male 129S6/SvEv; for freezing during CFC training: (R,S)-ketamine 30, prucalopride 3 or 10, PF-04995274 3 or 10 mg/kg, 1 week before CFC, vs saline; for freezing at re-exposure to the training context (learned fear) vs saline: single i.p. injection 1 week before CFC, re-exposure 5 days later
Experimental: (§1) This chronic CORT elevation dysregulates the hypothalamic-pituitary-adrenal axis (HPA) in a manner similar to that observed in clinical depression. The dose and duration of CORT treatment was selected based on previous studies. CORT (35 μg/ml, equivalent to about 5 mg/kg/day) dissolved in 0.45% hydroxypropyl-o-cyclodextrin (0-CD) or vehicle (VEH) (0.45% j-CD) was available ad libitum in the drinking water in opaque bottles to protect it from light. VEH- and CORT-treated water was changed every 3 days to prevent possible degradation. Contextual Fear Conditioning (CFC): A 3-shock CFC procedure was administered as previously published. Briefly, mice were placed into context A and administered 3 2-s shocks (0.75 mA) at 180 s, 240 s or 300 s following placement into context A. Mice were removed from the context 15 s following the termination of shock (at 317 s). For context retrieval, mice were placed back into context A for 300 s. Electrophysiology: Electrophysiology was conducted as previously described. Statistical Analysis: Results from data analyses are expressed as means±SEM. Alpha was set to 0.05 for all analyses. Data were analyzed using GraphPad Prism v7.0 or v8.0. For all experiments, unless otherwise noted, one- or two-way ANOVAs with repeated-measures were applied to the data as appropriate. Significant main effects and/or interactions were followed by Fisher's PLSD post hoc analysis or unpaired t-tests. Drugs: All drugs were prepared in physiological saline and all injections were administered intraperitoneally (i.p.) in volumes of 0.1 cc per […] body weight unless otherwise noted. Fluoxetine hydrochloride (Flx): Flx (BioTrend Chemicals AG, BG197, Zurich, Germany) was administered in the drinking water (18 mg/kg/day) for 3 weeks before the start of CORT. […] (R,S)-ketamine (K): (R,S)-ketamine (Ketaset III, Ketamine HCl injection, Fort Dodge Animal Health, Fort Dodge, Iowa) was administered in a single dose at 30 mg/kg of body weight 1 week before the start of CFC. […] PF-04995274: PF-04995274 (Sigma, Catalog No. 1331782-27-4, St. Louis, Mo.) was administered a single dose at 3 or 10 mg/kg of body weight 1 week before the start of CFC. PF-04995274 was dissolved in saline using an ultrasonic homogenizer (BioLogics, Model 3000, Manassas, Va.). Osmotic minipump implantation: ALZET osmotic minipumps (Model 2004, […], 28 days) were implanted subcutaneously under isoflurane anesthesia as previously described [S2]. Osmotic minipumps were rotated under the skin two to three times per week. Behavioral Assays: All experiments were approved by the Institutional Animal Care and Use Committee (IACUC) at the New York Psychiatric Institute (NYSPI). Elevated Plus Maze (EPM): Testing was performed as previously described [S3]. Briefly, the maze is a plus-cross-shaped apparatus consisting of four arms, two open and two enclosed by walls, linked by a central platform at a height of 50 cm from the floor. Mice were individually placed in the center of the maze facing an open arm and were allowed to explore the maze for 5 min. The time spent in and the number of entries into the open arms was used as an anxiety index. Videos were scored using ANY-maze behavior tracking software (Stoelting, Wood Dale, Ill.). Novelty-Suppressed Feeding: The NSF is a conflict test that elicits competing motivations: the drive to eat and the fear of venturing into the center of a brightly lit arena. The latency to feed is used as an index of anxiety-like behavior, because classical anxiolytic drugs decrease this measure. The NSF test was carried out during an 8 min period as previously described [S3]. Briefly, the testing apparatus consisted of a plastic box (50×50×20 cm), the floor of which was covered with approximately 2 cm of bedding. For 129S6/SvEv experiments, mice were food restricted for 12 h. For the C57BL/6N experiments, mice were food restricted for 24 h. […]

129S6/SvEv mice [2] = test: Forced swim test (FST) after CFC; format: in vivo; conditions: for immobility, FST day 1 / immobility time, FST day 2 vs saline: male 129S6/SvEv; for immobility, FST day 1: (R,S)-ketamine 30, prucalopride 3 or 10, PF-04995274 3 or 10 mg/kg; for immobility time, FST day 2 vs saline: single injection 1 week before CFC
Experimental: as §1

CA3 pyramidal cells = test: Whole-cell voltage clamp recordings of spontaneous EPSCs in CA3 slices; format: cell-based, mice; conditions: (R,S)-ketamine 30 mg/kg or prucalopride 3 mg/kg injected 1 week before slicing
Experimental: as §1

[3] = FIG. 4 cohort, Male, FIG. 4C, RMANOVA, Fisher's LSD
[4] = FIG. 4 cohort, Male, FIG. 4D, ANOVA, Fisher's LSD
[5] = FIG. 4 cohort, Male, FIG. 4F, RMANOVA, Fisher's LSD
[6] = FIG. 4 cohort, Male, FIG. 4G, ANOVA, Fisher's LSD

## CNC1(c2ccccc2Cl)CCCCC1=O (racemic) [(R,S)-ketamine]
129S6/SvEv mice [1]; [3]
  p, CFC Re-exposure Freezing (%), (R,S)-ketamine (30 mg/kg) vs. PF04995274 (3 mg/kg): 0.1027
  p, CFC Re-exposure Freezing (%), (R,S)-ketamine (30 mg/kg) vs. PF04995274 (10 mg/kg): 0.8015
  p, CFC Re-exposure Freezing (%), (R,S)-ketamine (30 mg/kg) vs. Prucalopride (3 mg/kg): 0.1343
  p, CFC Re-exposure Freezing (%), (R,S)-ketamine (30 mg/kg) vs. Prucalopride (10 mg/kg): 0.1023
  p, CFC Re-exposure Freezing (%), Saline vs. (R,S)-ketamine: 0.0448
129S6/SvEv mice [1]; [4]
  p, CFC Re-exposure, (R,S)-ketamine (30 mg/kg) vs. PF04995274 (3 mg/kg): 0.1027
  p, CFC Re-exposure, (R,S)-ketamine (30 mg/kg) vs. PF04995274 (10 mg/kg): 0.8015
  p, CFC Re-exposure, (R,S)-ketamine (30 mg/kg) vs. Prucalopride (3 mg/kg): 0.1343
  p, CFC Re-exposure, (R,S)-ketamine (30 mg/kg) vs. Prucalopride (10 mg/kg): 0.1023
  p, CFC Re-exposure, Saline vs. (R,S)-ketamine: 0.0448
129S6/SvEv mice [1]
  freezing during CFC training: comparable levels of freezing
129S6/SvEv mice [1]; 30 mg/kg
  freezing at re-exposure to the training context (learned fear) vs saline: attenuated learned fear
129S6/SvEv mice [2]; [5]
  p, FST Day 2 Immobility Time (sec), (R,S)-ketamine (30 mg/kg) vs. PF04995274 (3 mg/kg): 0.4094
  p, FST Day 2 Immobility Time (sec), (R,S)-ketamine (30 mg/kg) vs. PF04995274 (10 mg/kg): 0.3813
  p, FST Day 2 Immobility Time (sec), (R,S)-ketamine (30 mg/kg) vs. Prucalopride (3 mg/kg): 0.8332
  p, FST Day 2 Immobility Time (sec), (R,S)-ketamine (30 mg/kg) vs. Prucalopride (10 mg/kg): 0.1712
  p, FST Day 2 Immobility Time (sec), Saline vs. (R,S)-ketamine (30 mg/kg): 0.0218
129S6/SvEv mice [2]; [6]
  p, FST Day 2 Immobility Time (min 3-6) (sec), (R,S)-ketamine (30 mg/kg) vs. PF04995274 (3 mg/kg): 0.5815
  p, FST Day 2 Immobility Time (min 3-6) (sec), (R,S)-ketamine (30 mg/kg) vs. PF04995274 (10 mg/kg): 0.3207
  p, FST Day 2 Immobility Time (min 3-6) (sec), (R,S)-ketamine (30 mg/kg) vs. Prucalopride (3 mg/kg): 0.8478
  p, FST Day 2 Immobility Time (min 3-6) (sec), (R,S)-ketamine (30 mg/kg) vs. Prucalopride (10 mg/kg): 0.1763
  p, FST Day 2 Immobility Time (min 3-6) (sec), Saline vs. (R,S)-ketamine (30 mg/kg): 0.0330
129S6/SvEv mice [2]
  immobility, FST day 1: comparable levels of immobility
129S6/SvEv mice [2]; 30 mg/kg
  immobility time, FST day 2 vs saline: decreased immobility time
CA3 pyramidal cells
  average EPSC amplitude vs saline: no differences
  large AMPA receptor-mediated bursts of EPSCs: not present
  number of EPSCs vs saline: no differences

## OC1(CN2CCC(COc3noc4cccc(OC5CCOC5)c34)CC2)CCOCC1 (stereo not drawn) [PF-04995274]
129S6/SvEv mice [1]; [3]
  p, CFC Re-exposure Freezing (%), PF04995274 (3 mg/kg) vs. PF04995274 (10 mg/kg): 0.0619
  p, CFC Re-exposure Freezing (%), Saline vs. PF04995274 (3 mg/kg): 0.6871
  p, CFC Re-exposure Freezing (%), Saline vs. PF04995274 (10 mg/kg): 0.0255
129S6/SvEv mice [1]; [4]
  p, CFC Re-exposure, PF04995274 (3 mg/kg) vs. PF04995274 (10 mg/kg): 0.0619
  p, CFC Re-exposure, Saline vs. PF04995274 (3 mg/kg): 0.6871
  p, CFC Re-exposure, Saline vs. PF04995274 (10 mg/kg): 0.0255
129S6/SvEv mice [1]
  freezing during CFC training: comparable levels of freezing
129S6/SvEv mice [1]; 10 mg/kg
  freezing at re-exposure to the training context (learned fear) vs saline: attenuated learned fear
129S6/SvEv mice [2]; [5]
  p, FST Day 2 Immobility Time (sec), PF04995274 (3 mg/kg) vs. PF04995274 (10 mg/kg): 0.0941
  p, FST Day 2 Immobility Time (sec), Saline vs. PF04995274 (3 mg/kg): 0.1259
  p, FST Day 2 Immobility Time (sec), Saline vs. PF04995274 (10 mg/kg): 0.0023
129S6/SvEv mice [2]; [6]
  p, FST Day 2 Immobility Time (min 3-6) (sec), Saline vs. PF04995274 (3 mg/kg): 0.1050
  p, FST Day 2 Immobility Time (min 3-6) (sec), Saline vs. PF04995274 (10 mg/kg): 0.0027
129S6/SvEv mice [2]
  immobility, FST day 1: comparable levels of immobility
129S6/SvEv mice [2]; 10 mg/kg
  immobility time, FST day 2 vs saline: decreased immobility time
